Test results published in patent US10793598B2, “GrB-EHITSN inhibitory peptides” (Rush University Medical Center, priority 2014, dated 2020).
No end group written: not given here.

T1: myc-GrB-EHITSN (Homo sapiens, UniProt Q15811)
T1 construct: with a conserved cleavage site (IDQD^271GK) throughout the evolution; expressed in transfected cells; host or cells: endothelial cells (ECs), stably transfected, neomycin-selected; lysates resolved by SDS-PAGE and blotted
T1 sequence (Q15811 1-271): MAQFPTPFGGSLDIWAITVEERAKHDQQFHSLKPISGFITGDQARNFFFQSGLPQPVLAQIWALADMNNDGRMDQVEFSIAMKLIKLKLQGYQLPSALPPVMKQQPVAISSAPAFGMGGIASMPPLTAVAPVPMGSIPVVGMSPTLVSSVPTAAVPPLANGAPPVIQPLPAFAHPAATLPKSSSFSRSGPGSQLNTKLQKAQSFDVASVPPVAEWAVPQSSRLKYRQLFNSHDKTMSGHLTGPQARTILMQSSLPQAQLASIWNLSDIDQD


How the values were obtained:
ECs = assay: Fluorescence microscopy of peptide internalization; type: cell-based; conditions: 12.5 μM PenNPF-FITC
Method: (§1) FIGS. 1A-1C illustrate the effect of the GrB-EHITSN inhibitory peptide on ECs. A. MTT assay applied on ECCtrl, myc-GrB-EHITSN-transfected ECs and myc-GrB-EHITSN-transfected ECs exposed to 12.5 μM PenNFP-FITC peptide for 1 h, 37° C.; p<0.05; WB of cell lysates (inset a1) of ECCtrl (a), myc-GrB-EHITSN-ECs (b) and myc-GrB-EHITSN-ECs+12.5 μM PenNPF for 1 h, 37° C. (c), using phospho (p)-p38 and p38 Abs. B. Quantification of EC proliferation: ECCtrl (a), myc-GrB-EHITSN-ECs (b), myc-GrB-EHITSN-ECs+12.5 μM PenNPF (c), myc-GrB-EHITSN-ECs+12.5 μM Pen-AAA (d), myc-GrB-EHITSN-ECs+12.5 μM Pen (e), myc-GrB-EHITSN-ECs+12.5 μM NPF (f), and myc-GrB-EHITSN-ECs+12.5 μM scrambled penNPF, (g). Data in A and B are mean±SEM of 3 independent experiments performed in triplicates. *p<0.05 vs. ECCtrl. C. Fluorescence microscopy of ECs exposed to 12.5 μM PenNPF-FITC, fixed and mounted on glass slides with Prolong Antifade with DAPI. Bar: 50 μm. Inset c1. ECCtrl (a) and myc-GrB-EHITSN-ECs (b) lysates resolved on SDS PAGE and transferred to nitrocellulose membranes were overlaid with the PenNFP-FITC.
(§2) ECs stably transfected with the myc-GrB-EHITSN [selected based on neomycin-resistance], were treated with the PenNPF-FITC peptide to address whether inhibition of GrB-EHITSN ameliorates EC proliferation. […] A growth curve was generated to relate the OD^570 values to the cell number per well. […]

[1] = test system: myc-GrB-EHITSN-transfected ECs; assay: MTT assay of EC proliferation / cell growth; type: cell-based; conditions: for cell growth / EC proliferative potential (MTT): myc-GrB-EHITSN-transfected ECs, 12.5 μM peptide, 1 h, 37° C., vs transfected ECs not exposed
Method: (§3) (c), using phospho (p)-p38 and p38 Abs. […] C. […] Bar: 50 μm. Inset c1. ECCtrl (a) and myc-GrB-EHITSN-ECs (b) lysates resolved on SDS PAGE and transferred to nitrocellulose membranes were overlaid with the PenNFP-FITC.
(§4) ECs stably transfected with the myc-GrB-EHITSN [selected based on neomycin-resistance], were treated with the PenNPF-FITC peptide to address whether inhibition of GrB-EHITSN ameliorates EC proliferation. […] A growth curve was generated to relate the OD^570 values to the cell number per well. […] Inset c1. ECCtrl (a) and myc-GrB-EHITSN-ECs (b) lysates resolved on SDS PAGE and transferred to nitrocellulose membranes were overlaid with the PenNFP-FITC.

myc-GrB-EHITSN = biological target: T1, myc-GrB-EHITSN; assay: Overlay of lysates on nitrocellulose membranes with FITC peptide, detected by FITC Ab; type: binding; conditions: overlay on myc-GrB-EHITSN-EC lysates; n=3
Method: as §1, §2

phospho-p38 = assay: WB of cell lysates using phospho (p)-p38 and p38 Abs; type: cell-based; conditions: GrB-EHITSN-transfected ECs, exposure for 24 h
Method: as §3, §4

myc-GrB-EHITSN-mice = assay: RVSP measured by right heart catheterization; type: in vivo, mouse
Method: FIGS. 3A-3D illustrate representative H&E staining of lung sections of myc-GrB-EHITSN-KDITSN mice (A, a1, B) and RVSP measurements (C) in wt-(bar a), empty-Lipo (bar b) and myc-GrB-EHITSN-mice (bar c), 10 days of GrB-EHITSN treatment. […] Data are mean±SEM. For morphological assessment of peptide internalization (panel D), mice were sacrificed 1 h after injection. Bars: 50 μm (A, B); 20 μm (a1, D). n=3.

[2] = WB with myc Ab on lung lysates (expression of the encoded protein); type: in vivo, mouse; conditions: after liposomal plasmid delivery; efficiently expressed at 48 h post-delivery
Method: (§5) GrB-EHITSN has EC proliferative potential in vivo. To address the proliferative potential of GrB-EHITSN in vivo, the myc-GrB-EHITSN DNA plasmid was delivered via cationic liposomes into mouse lungs. (Knezevic, 2011). […] For continuous and efficient long-term expression of myc-GrB-EHITSN, mice were injected repeatedly every 48 h, for 9 days (Bardita, 2013). Actin was used as loading control. In parallel studies, myc-GrB-EHITSN-transduced mice (FIG. 2B) and wt-controls (FIG. 2A) were subjected to BrdU cell proliferation and morphometric analyses, at day 6 of GrB-EHITSN treatment (Bardita, 2013). BrdU was injected intra-peritoneally every 24 h, for 2 consecutive days (day 4 and 5 of myc-GrB-EHITSN treatment). Incorporated BrdU was detected via BrdU-FITC Ab; CD31 Ab/AlexaFluor 594 was used for positive identification of ECs. For morphological assessment of peptide internalization mice were sacrificed 1 h after injection. […] Data in FIG. 2A-B indicate that the GrB-EHITSN has EC proliferative in vivo.

BrdU+ ECs = assay: BrdU cell proliferation assay in mouse lungs; type: in vivo; conditions: myc-GrB-EHITSN plasmid via cationic liposomes into mouse lungs, day 6 of treatment
Source text: FIGS. 2A-2B illustrate the proliferative effect of the GrB-EHITSN fragment on EC in vivo. Wt-mice (B) and myc-GrB-EHITSN-treated mice, day 5 of treatment (A) were subjected to BrdU proliferation assay. Data are mean±SEM. All data are representative of 3 mice in each group. Bars: 20 μm.
as §5

GrB-EHITSN-mice = assay: Fulton's index (RV hypertrophy); type: in vivo, mouse; conditions: means±SEM, p<0.05 vs wt-mice
Source text: GrB-EHITSN increases pulmonary pressure in mouse lungs. […] The Fulton's index (RV/left ventricle plus septum), indicative of RV hypertrophy, assessed as in (Qin, 2012) was higher in GrB-EHITSN-mice compared to wt-mice (0.31±0.03 vs. 0.22±0.01; means±SEM; p<0.05).

Molecule	internalization by ECs (fluorescent imaging) (ECs)	decrease in the number of myc-GrB-EHITSN-transfected cells ([1]; calculated on 3 successive points of growth curve, vs transfected ECs not exposed to peptide)	cell growth / EC proliferative potential (MTT) [1]	OD570 values ([1]; wells with myc-GrB-EHITSN-transfected cells exposed to peptide)	interaction with myc-GrB-EHITSN (myc-GrB-EHITSN)	phospho-p38 / p38 activation (phospho-p38)	decrease in RVSP (myc-GrB-EHITSN-mice; myc-GrB-EHITSN-mice, 50 μg PenNPF/mouse) [%]	lifetime of encoded protein in mouse lung [2]	increase in BrdU+ ECs relative to controls (BrdU+ ECs)	Fulton's index (RV/left ventricle plus septum) (GrB-EHITSN-mice)	increase in RVSP compared to wt- and empty liposomes-treated mice (myc-GrB-EHITSN-mice; day 10-post initial GrB-EHITSN delivery) [fold]
PenNPF-FITC: PenNPF inhibitory peptide carrying a FITC-tag (RQIKIWFQNRRMKWKKPTGSSSTNPFL; also: FITC tag, site not given here)	efficient internalization	greater than 35%	inhibits cell growth	close to the OD^570 values of control ECs	direct interaction	phospho-p38 inhibition	–	–	–	–	–
RQIKIWFQNRRMKWKKPTGSSSTNPFL (PenNPF fusion peptide)	–	–	decreases the ECs proliferative potential of GrB-EHITSN	–	–	decreases the ECs proliferative potential of GrB-EHITSN and p38 activation	20	–	–	–	–
myc-GrB-EHITSN: myc-tagged granzyme B cleavage fragment of intersectin-1s (two EH domains), expressed from DNA plasmid delivered via cationic liposomes (protein, left off: small tags and cut ends, myc-tagged granzyme B cleavage fragment of intersectin-1s (two EH domains), expressed from DNA plasmid delivered via cationic liposomes) MAQFPTPFGGSLDIWAITVEERAKHDQQFHSLKPISGFITGDQARNFFFQSGLPQPVLAQIWALADMNNDGRMDQVEFSIAMKLIKLKLQGYQLPSALPPVMKQQPVAISSAPAFGMGGIASMPPLTAVAPVPMGSIPVVGMSPTLVSSVPTAAVPPLANGAPPVIQPLPAFAHPAATLPKSSSFSRSGPGSQLNTKLQKAQSFDVASVPPVAEWAVPQSSRLKYRQLFNSHDKTMSGHLTGPQARTILMQSSLPQAQLASIWNLSDIDQD	–	–	–	–	–	–	–	about 72 h	more than 1.6 fold	0.31±0.03	1.36
